Reference: patent US10980808B2, “Calmodulin inhibitors, Chk2 inhibitors and RSK inhibitors for the treatment of ribosomal disorders and ribosomapathies” (THE CHILDREN'S MEDICAL CENTER CORPORATION, priority 2016, dated 2021)
“Also recorded” adds a separate entry of the source. Values belong to the molecule of their own block, whether it stands above or below them.

Experiments:
[1] = tested on: rps29−/− zebrafish embryos; assay: hemoglobin (benzidine staining) rescue in rps29-/- zebrafish embryos; type: in vivo; details: for Hb increase at low concentrations: rps29−/− embryos, compared with positive control fluphenazine / with DB-4-089; for hemoglobin (Hb) in rps29−/− embryos: benzidine staining
[2] = tested on: rps29−/− zebrafish embryos; assay: chemical screen: rescue of morphological, hematopoietic and endothelial defects of rps29-/- embryo; type: in vivo
[3] = tested on: RPS19 shRNA CD34+ peripheral blood mononuclear cells; assay: primary human in vitro differentiation model of DBA: CD34+ PBMCs with RPS19 shRNA, CD71+ flow cytometry; type: cell-based; details: treated once for 5 days
Excerpt: FIG. 40 is a schematic of the testing of novel phenothiazine derivatives in a human in vitro model of DBA. Primary human peripheral blood mononuclear cells (PBMCs) are transduced with RPS19-GFP shRNA to make a ribiosomal protein deficiency. Cells are transferred to eyrthroid differentiation media and treated once for 5 days with Drug. Cells are harvested and analyzed for erythroid precursors by flow cytomety for CD71^+ cells.
We next tested three derivatives in our primary human in vitro differentiation model of DBA. To do this we expanded CD34+ peripheral blood mononuclear cells in culture for 2 days and induced ribosomal protein deficiency with a lentirvirus containing RPS19 shRNA (FIG. 40). After 3 days the cells are placed into erythroid differentiation media with or without the novel derivatives and cultured for 5 days. Erythroid differentiation is then assessed by flow cytometry analysis for the transferrin receptor, CD71+. […] In addition, the novel derivatives increased the absolute erythroid number compared to DMSO treated (FIG. 41). […] A table summarizing the activity of the compounds is found in FIG. 43.

6 dpf WT zebrafish = assay: zebrafish behavior tracking (proxy for BBB permeation); details: for zebrafish movement / swimming behavior vs DMSO: 6 dpf, drug in fish water, tracked 1-2 h
p53 in Saos2 cells = assay: p53 activity in Saos2 cells transfected with p53 constructs (qPCR); type: cell-based
Protocol: FIG. 9A a schematic of wild type P53 and deleted regulatory region p53 (p53 reg). FIG. 9[…] of procedure. Saos2 cells (p53-null cells) transiently transfected with p53 constructs and were treated with vehicle or 20 μM TFP for 24 hours. TFP activity on p53 was assessed by the ability of TFP to reduce p21 mRNA levels measured by qPCR. FIG. 9C is a graph of p21 RNA expression. Since our compound decreases p53 activity, we wanted to determine the region of p53 is responsible for CaM inhibitor activity. […] Next, the c-terminal 30 amino acids from p53 (363-393) were removed. This construct is p53-reg. […] FIGS. 11A to 11C are schematics and graphs which indicate that p53 S392 phhosphomimetic prevents TFP from reducing p53 activity. To confirm the importance of the ability of CaM inhibitors to block the phosphorylation of p53, we created phosphomimetic p53 by replacing […], which mimics constitutive phosphorylation. We also generated a control phosphomimetic p53 where […]. This mutant should have no effect on the ability of TFP to reduce p53 activity. FIG. 11A is a schematic of experiment used to test these mutants, we transiently transfected, WT p53, […] and […] into Saos2 cells and treated them with vehicle or TFP. To assess p53 activity, we examined p21 and MDM2 mRNA levels. FIG. 11B is a graph of p21 Expression. FIG. 11C is a graph of MDM2 mRNA expression. […] Confirming that blocking the S392 phosphorylation is important for the activity of TFP.

Rps19 deficient mice = assay: DBA dox-inducible RPS19 knockdown mouse model; type: in vivo; details: treated every other day for 2 weeks
[4] = tested on: 293T cells with RPS19 shRNA; assay: phosphorylation in 293T cells with RPS19 shRNA; type: cell-based, human; details: for phosphorylation of p70S6K: during ribosomal protein deficiency
Excerpt: FIGS. 17A to 17C are scehmatics and gels that indicate CaM and Chk2 inhibitors block phosphorylation of p70S6K selectively during RP deficiency. FIG. 17A schematic, we used 293T cells, and induced ribosomal protein deficiency using shRNA for RPS19 or Luc for control. […] ERK phosphorylation is increased by these inhibitors, which is also seen with RSK inhibitors. FIG. 17C a gel of the effect of Luc and […] shRNA on phosphorylated S392. […] RSK inhibitors increase ERK phosphorylation through a negative feedback loop. So TFP and BML similarly affect ERK in the same manner.

[5] = tested on: p53 phosphorylation in 293T cells; assay: mass spectrometry of p53 post-translational modifications in 293T cells; type: cell-based; details: 3 hours; for percentage of peptides containing phosphorylated serine 392 of p53: WT-p53-GFP
Protocol: FIGS. 10A to 10C show schematics, graphs and gels that indicate CaM and Chk2 inhibitors reduce S392 phosphorylation. FIG. 10A is a schematic of conserved regulatory region phosphorylation sites. FIG. 10B are graphs of an unbiased mass spectrometry analysis looking for post-translational modifications of p53 altered in the presence of the CaM inhibitor TFP or the Chk2 inhibitor, BML. 293T cells were transfected with WT-p53 tagged with GFP and treated with TFP or BML for 3 hours. P53 was immunoprecipitated using an antibody against GFP and was submitted for mass spec analysis. […] By two different mass spec methods, either conventional mass spec or by TMT tagging of the peptide we found in both cases the percentage of peptides containing phosphorylated serine 392 was reduced in TFP and BML treated samples (FIG. 10B). It was also noted that this serine is conserved in both zebrafish and mouse (FIG. 10A). FIG. 10C is a Western Blot that indicates phosphorylation decrease.

[6] = tested on: RPS19 deficient CD34 cells; assay: phosphorylation in RPS19 deficient CD34 cells; type: cell-based, human
Excerpt: FIG. 18 is a schematic of the assay of RSK activation in human cells. The most relevant in vitro model in the blood field is primary human cells-such as Peripheral blood mononuclear cells (PBMCs). […] FIG. 19B schematic ov RP deficiency. TFP treatment reduces P-RPS6 and P-p53 […] and p53 total levels.

[7] = tested on: RPS19 deficient cord blood derived CD34+ cells; assay: human in vitro model of DBA: cord blood CD34+ cells with RPS19 shRNA, erythroid differentiation; type: cell-based
PKC = details: upstream kinase; cited from earlier work
MEK = details: upstream kinase; cited from earlier work
Raf = details: upstream kinase; cited from earlier work
p70S6K = p70S6K (Homo sapiens, UniProt P23443); assay: in vitro kinase profiling (Thermo Fisher SelectScreen), p70S6K; type: biochemical
Excerpt: We asked if CaM and Chk2 inhibitors are blocking specific kinases. The known kinases that phosphorylate S392 are CK2 and p38. […] Thus, the question became what is TFP inhibiting upstream? Is it inhibiting a kinase that phosphorylates S392? We submitted CaM and Chk2 inhibitors for Kinase profiling using Thermo Fisher's SelectScreen.

RSK4 = RSK4 (Homo sapiens, UniProt Q9UK32); details: in vitro; cited from earlier work
RSK2 = RSK2 (Homo sapiens, UniProt P51812); details: in vitro; cited from earlier work
RSK3 = RSK3 (Homo sapiens, UniProt Q15349); details: in vitro; cited from earlier work
RSK1 = RSK1 (Homo sapiens, UniProt Q15418); details: in vitro; cited from earlier work
[8] = Saos2 cells with WT p53 or S15D p53

Sequence of RSK4 (Q9UK32 whole entry): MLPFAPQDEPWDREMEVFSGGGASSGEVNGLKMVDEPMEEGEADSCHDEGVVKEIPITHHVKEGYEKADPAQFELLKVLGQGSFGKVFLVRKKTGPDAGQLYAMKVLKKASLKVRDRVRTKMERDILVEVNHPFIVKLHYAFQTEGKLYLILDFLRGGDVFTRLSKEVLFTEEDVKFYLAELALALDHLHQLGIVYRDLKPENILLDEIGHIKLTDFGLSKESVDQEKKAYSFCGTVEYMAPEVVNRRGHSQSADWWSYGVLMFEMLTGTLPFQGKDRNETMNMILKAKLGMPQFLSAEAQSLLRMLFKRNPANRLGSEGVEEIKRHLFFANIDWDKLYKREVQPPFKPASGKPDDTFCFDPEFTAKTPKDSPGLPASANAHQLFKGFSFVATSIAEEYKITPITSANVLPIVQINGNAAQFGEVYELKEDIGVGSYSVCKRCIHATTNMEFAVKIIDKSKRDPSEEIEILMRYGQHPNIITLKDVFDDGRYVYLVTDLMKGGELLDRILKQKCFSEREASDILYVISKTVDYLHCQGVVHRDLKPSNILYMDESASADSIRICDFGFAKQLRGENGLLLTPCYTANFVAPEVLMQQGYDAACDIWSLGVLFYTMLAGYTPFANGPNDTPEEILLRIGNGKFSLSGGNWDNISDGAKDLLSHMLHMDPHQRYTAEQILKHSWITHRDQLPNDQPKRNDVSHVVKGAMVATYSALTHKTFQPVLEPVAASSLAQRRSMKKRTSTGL
Sequence of RSK3 (Q15349 whole entry): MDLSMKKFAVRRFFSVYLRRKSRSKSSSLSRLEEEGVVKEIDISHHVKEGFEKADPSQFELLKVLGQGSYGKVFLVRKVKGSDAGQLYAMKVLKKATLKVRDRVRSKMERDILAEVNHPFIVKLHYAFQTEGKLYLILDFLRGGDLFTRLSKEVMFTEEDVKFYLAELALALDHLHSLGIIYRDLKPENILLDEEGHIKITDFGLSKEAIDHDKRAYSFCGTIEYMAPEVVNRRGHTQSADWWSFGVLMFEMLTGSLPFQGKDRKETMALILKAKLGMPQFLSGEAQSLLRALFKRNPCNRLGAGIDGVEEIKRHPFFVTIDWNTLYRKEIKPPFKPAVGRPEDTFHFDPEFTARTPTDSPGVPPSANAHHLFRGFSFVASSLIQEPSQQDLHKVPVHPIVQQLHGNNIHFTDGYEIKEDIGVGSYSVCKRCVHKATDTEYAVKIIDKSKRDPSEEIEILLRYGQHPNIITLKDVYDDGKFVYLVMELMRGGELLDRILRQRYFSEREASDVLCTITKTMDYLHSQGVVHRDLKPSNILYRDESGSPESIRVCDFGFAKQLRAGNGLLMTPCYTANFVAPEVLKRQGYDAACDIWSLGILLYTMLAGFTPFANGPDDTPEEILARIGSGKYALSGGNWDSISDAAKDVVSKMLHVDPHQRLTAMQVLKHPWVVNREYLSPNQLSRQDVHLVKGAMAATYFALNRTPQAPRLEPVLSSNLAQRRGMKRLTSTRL
Sequence of RSK1 (Q15418 whole entry): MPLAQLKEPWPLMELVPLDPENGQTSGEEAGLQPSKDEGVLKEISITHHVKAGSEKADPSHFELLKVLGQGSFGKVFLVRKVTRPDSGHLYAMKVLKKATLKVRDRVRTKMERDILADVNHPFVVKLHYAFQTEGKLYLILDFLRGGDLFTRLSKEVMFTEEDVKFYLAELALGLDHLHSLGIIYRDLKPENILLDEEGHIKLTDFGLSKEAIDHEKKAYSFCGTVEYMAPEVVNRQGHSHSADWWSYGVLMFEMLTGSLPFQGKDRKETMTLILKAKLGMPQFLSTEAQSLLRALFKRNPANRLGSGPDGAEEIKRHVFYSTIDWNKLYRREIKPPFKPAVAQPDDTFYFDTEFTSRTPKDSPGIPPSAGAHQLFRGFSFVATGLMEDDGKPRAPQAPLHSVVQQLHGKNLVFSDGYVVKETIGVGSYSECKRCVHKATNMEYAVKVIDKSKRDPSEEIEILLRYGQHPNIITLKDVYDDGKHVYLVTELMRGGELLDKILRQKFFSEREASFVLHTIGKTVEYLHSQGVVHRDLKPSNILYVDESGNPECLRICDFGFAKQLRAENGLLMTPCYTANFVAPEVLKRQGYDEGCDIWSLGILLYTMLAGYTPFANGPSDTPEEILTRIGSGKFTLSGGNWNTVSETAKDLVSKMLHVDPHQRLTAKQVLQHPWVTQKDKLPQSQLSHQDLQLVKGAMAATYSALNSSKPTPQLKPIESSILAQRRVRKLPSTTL
Sequence of p70S6K (P23443 whole entry): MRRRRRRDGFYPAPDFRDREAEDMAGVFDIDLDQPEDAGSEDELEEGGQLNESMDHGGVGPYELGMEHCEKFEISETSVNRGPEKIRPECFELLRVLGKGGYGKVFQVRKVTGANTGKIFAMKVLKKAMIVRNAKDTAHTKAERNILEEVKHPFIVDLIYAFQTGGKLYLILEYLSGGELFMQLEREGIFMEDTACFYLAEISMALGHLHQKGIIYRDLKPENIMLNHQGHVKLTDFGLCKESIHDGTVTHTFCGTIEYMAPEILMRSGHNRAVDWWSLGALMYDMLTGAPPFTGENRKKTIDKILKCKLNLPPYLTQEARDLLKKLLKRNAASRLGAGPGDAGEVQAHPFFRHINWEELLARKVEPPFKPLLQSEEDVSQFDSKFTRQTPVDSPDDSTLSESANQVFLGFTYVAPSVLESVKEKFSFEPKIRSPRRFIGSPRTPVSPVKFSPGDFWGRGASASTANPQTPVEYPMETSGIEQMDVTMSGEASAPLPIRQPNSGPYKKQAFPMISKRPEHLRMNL
Sequence of RSK2 (P51812 whole entry): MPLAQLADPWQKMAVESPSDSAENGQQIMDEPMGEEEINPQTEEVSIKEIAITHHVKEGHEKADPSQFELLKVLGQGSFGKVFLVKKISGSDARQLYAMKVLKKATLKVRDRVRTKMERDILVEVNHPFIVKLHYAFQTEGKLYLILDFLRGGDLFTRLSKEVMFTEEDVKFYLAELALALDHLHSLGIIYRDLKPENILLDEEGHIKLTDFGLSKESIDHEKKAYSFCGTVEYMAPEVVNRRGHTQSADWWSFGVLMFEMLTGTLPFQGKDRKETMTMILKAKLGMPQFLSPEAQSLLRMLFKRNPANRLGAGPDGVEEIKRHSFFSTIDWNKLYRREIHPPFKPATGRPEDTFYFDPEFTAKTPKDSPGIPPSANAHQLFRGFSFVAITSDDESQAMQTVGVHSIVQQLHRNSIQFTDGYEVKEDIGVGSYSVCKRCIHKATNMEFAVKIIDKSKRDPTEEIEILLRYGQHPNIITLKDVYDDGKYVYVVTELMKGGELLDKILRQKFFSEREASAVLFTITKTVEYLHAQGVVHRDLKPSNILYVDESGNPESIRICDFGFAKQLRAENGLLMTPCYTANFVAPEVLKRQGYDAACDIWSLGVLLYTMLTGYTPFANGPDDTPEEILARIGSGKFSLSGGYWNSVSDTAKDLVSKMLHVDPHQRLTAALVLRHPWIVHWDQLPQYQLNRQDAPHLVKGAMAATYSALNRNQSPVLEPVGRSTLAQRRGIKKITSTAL

Molecule: Clc1ccc2c(c1)N(CCCN1CCOCC1)c1ccccc1S2 [compound 086]
Hb increase at low concentrations [1]: did not increase Hb at the same low concentrations

Molecule: Clc1ccc2c(c1)N(CCCN1CCCCC1)c1ccccc1S2 [compound 084]
Hb increase at low concentrations [1]: did not increase Hb at the same low concentrations

Molecule: CC(C)NCCCN1c2ccccc2Sc2ccc(Cl)cc21 [088-3]
Hb increase at low concentrations [1]: increase Hb at lower concentrations than the positive control phenothiazine
rescuing morphological defects and hematopoietic and endothelial defects [2]: work particularly well

Molecule: CN1CCC(N(CCCN2c3ccccc3Sc3ccc(Cl)cc32)CCCN2c3ccccc3Sc3ccc(Cl)cc32)CC1 [compound 089]
Hb increase at low concentrations [1]: increase Hb at lower concentrations than the positive control phenothiazine
Hb increase at low concentrations ([1]; listed as DB-4-089): increased Hb at low concentrations
percentage of erythroid precursor cells (CD71+) compared to DMSO [3]: increased the percentage of erythroid precursor cells
percentage of erythroid precursor cells (CD71+) compared to DMSO ([3]; listed as DB-4-089): increased eyrthroid differentiation
zebrafish movement / swimming behavior vs DMSO (6 dpf WT zebrafish): altered behavior; also recorded: alters movement
toxicity in behavior assay (6 dpf WT zebrafish; highest dose): toxic at the highest dose
rescuing morphological defects and hematopoietic and endothelial defects [2]: work particularly well

Molecule: CC(C)(C)OC(=O)CCN1CCN(CCCN2c3ccccc3Sc3ccc(Cl)cc32)CC1 [compound 083]
Hb increase at low concentrations [1]: did not increase Hb at the same low concentrations

Molecule: CC(C)N(CCCN1c2ccccc2Sc2ccc(Cl)cc21)CCCN1c2ccccc2Sc2ccc(Cl)cc21 [088-2]
Hb increase at low concentrations [1]: increase Hb at lower concentrations than the positive control phenothiazine
percentage of erythroid precursor cells (CD71+) compared to DMSO [3]: increased the percentage of erythroid precursor cells
rescuing morphological defects and hematopoietic and endothelial defects [2]: work particularly well

Molecule: CN1CCN(CCCN2c3ccccc3Sc3ccc(C(F)(F)F)cc32)CC1 [TFP, trifluoperazine]
hemoglobin (Hb) in rps29−/− embryos [1]: rescue Hb
ability of p53 to form a tetramer (p53 in Saos2 cells): did not inhibit
MDM2 mRNA levels (p53 in Saos2 cells; [8]): able to reduce
p21 mRNA levels (p53 in Saos2 cells; [8]): able to reduce
MDM2 mRNA levels (p53 in Saos2 cells; Saos2 cells with p53 S392D): unable to reduce
p21 mRNA levels (p53 in Saos2 cells; Saos2 cells with p53 S392D): unable to reduce
hemoglobin levels (Rps19 deficient mice): significantly increases
p21 mRNA levels (p53 activity) in bone marrow (Rps19 deficient mice): reduced; also recorded: decreases
red blood cell number (Rps19 deficient mice): significantly increases
ERK phosphorylation [4]: increased
phosphorylation of p70S6K [4]: selectively inhibited
percentage of peptides containing phosphorylated Serine 6 of p53 [5]: did not change
percentage of peptides containing phosphorylated Serine 315 of p53 [5]: did not change
percentage of peptides containing phosphorylated serine 392 of p53 [5]: reduced
P-RPS6 [6]: reduces
P-p53 S392 [6]: reduces
p53 total levels [6]: reduces
% erythroid precursor cells (CD71+) on day 12 [7]: increases
p21 mRNA levels [7]: dose dependently decreases

Molecule: OCCN1CCN(CCCN2c3ccccc3Sc3ccc(Cl)cc32)CC1 [perphenizine]
hemoglobin (Hb) in rps29−/− embryos [1]: increase Hb

zebrafish movement / swimming behavior vs DMSO (6 dpf WT zebrafish): more erratic activity
Molecule: Clc1ccc2c(c1)N(CCCN1CCN(CCNCCCOCCOCCOCCCNC(c3ccccc3)(c3ccccc3)c3ccccc3)CC1)c1ccccc1S2 [221E]

Molecule: 3-[(3,4-Di-O-acetyl-6-deoxy-α-L-mannopyranosyl)oxy]-5,7-dihydro-2-(4-hydroxyphenyl)-4H-1benzopyran-4-one [SL]
hemoglobin (Hb) in rps29−/− embryos [1]: increase Hb
inhibition of PKC (PKC): Does not inhibit
inhibition of MEK (MEK): Does not inhibit
inhibition of Raf (Raf): Does not inhibit

Molecule: NCCNS(=O)(=O)c1cccc2c(Cl)cccc12 [A-3]
hemoglobin (Hb) in rps29−/− embryos [1]: rescue Hb

Molecule: CCc1cncnc1N1CCN(Cc2nc3cc(C(F)(F)F)ccc3[nH]2)CC1 [PF, 2-[[4-(5-Ethylpyrimidin-4-yl)piperazin-1-yl]methyl]-5-(trifluoromethyl)-1H-benzo[d]imidazole]
hemoglobin (Hb) in rps29−/− embryos [1]: increase Hb

Molecule: NC(=O)c1ccc2nc(-c3ccc(Oc4ccc(Cl)cc4)cc3)[nH]c2c1 [BML]
ERK phosphorylation [4]: increased
phosphorylation of p70S6K [4]: selectively inhibited
percentage of peptides containing phosphorylated Serine 6 of p53 [5]: did not change
percentage of peptides containing phosphorylated Serine 315 of p53 [5]: did not change
percentage of peptides containing phosphorylated serine 392 of p53 [5]: reduced

Molecule: OCCN1CCN(CCCN2c3ccccc3Sc3ccc(C(F)(F)F)cc32)CC1 [FLU, fluphenazine]
hemoglobin (Hb) in rps29−/− embryos [1]: rescues better than either RSK or p70S6K inhibitor alone
hemoglobin (Hb) in rps29−/− embryos ([1]; listed as fluphenazine): increase Hb

percent inhibition of in vitro kinase activity, p70S6K (p70S6K): inhibition
Molecule: NC1=N/C(=C2/CCNC(=O)c3cc4[nH]c5ccccc5c4cc32)C(=O)N1 [III]
hemoglobin (Hb) in rps29−/− embryos [1]: Resues Hb; also recorded: rescue Hb

Molecule: CC(C)CCC1c2nc(Nc3cc(F)c(O)c(F)c3)ncc2N(C)C(=O)C1C (centres unmarked) [BI-D1870]
IC50 (RSK4): 15 nM
IC50 (RSK2): 24 nM
IC50 (RSK3): 18 nM
IC50 (RSK1): 31 nM

Molecule: O=C(O)CCC(=O)NCCN1CCN(CCCN2c3ccccc3Sc3ccc(Cl)cc32)CC1 [PerSucc]
hemoglobin (Hb) in rps29−/− embryos [1]: dramatic rescue of Hb expression; also recorded: increase Hb
zebrafish movement / swimming behavior vs DMSO (6 dpf WT zebrafish): less active and rest more than DMSO treated fish
rescuing morphological defects and hematopoietic and endothelial defects [2]: work particularly well

Molecule: NCCCCCCNS(=O)(=O)c1cccc2c(Cl)cccc12 [W-7]
hemoglobin (Hb) in rps29−/− embryos [1]: rescue Hb
